Patent US20090233881A1, “COMPOUNDS HAVING ANTI-CANCER PROPERTIES” (Vital Health Sciences Pty. Ltd, priority 2005, published 2009)
Values joined by “and” are separate entries in the source; they are usually repeats but may differ in a detail not shown here. Identical values can stand only once.

Legend:
[1] = tested on: MCF-7 breast cancer cells; assay: MCF-7 breast cancer cell line proliferation assay (MTS); format: cell-based, human; details: for activity on MCF-7 proliferation (MTS; quantity not given): MCF-7, 72 hours, no E
Procedure: MCF-7 breast cancer cell growth conditions: Cells were grown in 75 cm^2 plastic tissue cell flasks as monolayer in Dulbecco's Modified Eagle Medium (DMEM), supplemented with 10% FBS in a humidified atmosphere of 5% CO2 in 95% air at 37° C. Cells were sub-cultured at bi-weekly intervals by suspension with 0.06% trypsin/0.02% EDTA (pH 7.3).
MCF-7 breast cancer cell line proliferation assays (MITS Assays): Cells were trypsinised (as performed during sub-culturing) in DMEM, supplemented with 10% FBS. Cells were re-suspended to a cell count of 10,000 cells/ml, with the use of a haemocytometer. Cells were seeded at 1,000 cells/well or by the addition of 100 μl of the cell suspension into 96-well cell culture plates. The cells were left overnight and then were synchronised (by serum starving for 24 hours), prior to the start of experiments.
After the cells were synchronised the cells were treated with the appropriate concentrations of the treatments, prepared in 100% ethanol (2, 5, 10, 15, 20, 30 & 50 μg/ml), they were added to RPMI medium 1640 supplemented with 10% dextran-charcoal treated FCS (DCFBS). […] After 72 hours the plates are incubated with MTS reagent (as described in Example 1) for 1 hr. The plate was read in a spectrophotometer at 490 nm. There were 8 replicates for each compound tested (at the various concentrations shown below).
Treatment abbreviations: GT=gamma-tocopherol; GTP=gamma-tocopheryl phosphate; GT2P=gamma-di-tocopheryl phosphate, GTPM=gamma-tocopheryl phosphate mixture (combination of GTP and GT2P).

[2] = tested on: MCF-7 breast cancer cells; assay: as above; format: cell-based, human; details: MCF-7, 72 hours, no E, concentration 1
[3] = tested on: DU-145 prostate cancer cells; assay: DU-145 cell growth assay (Coulter cell counting); format: cell-based; details: DU-145, 12 days; for Total viable cells/well: single well
Procedure: Culture of stock cells. DU-145 prostate cancer cells were purchased from American Type Culture Collection (Manassas, Va., USA). Stock cells were grown in Dulbecco's Modified Eagle Medium (DMEM) (Gibco BRL, Grand Island N.Y.) supplemented with 5% FBS (Fetal Bovine Serum, Gibco BRL, Grand Island N.Y.) in a humidified atmosphere of 5% CO2 in air at 37° C. Cells were subcultured every 1-2 times a week.
Cell growth assay. Cells were trypsinized from the stock plates by treatment with trypsin/versene, added to an equal volume of phenol red-free RPMI-1640 (Gibco BRL, Grand Island N.Y.) supplemented with 5% dextran-charcoal treated fetal calf serum (DCFCS). Cells were resuspended to a cell count of 0.1×10^5 cells/ml with the use of a haemocytometer and plated in monolayer in 0.5 ml aliquots into 24-well plastic culture dishes (Costar, Corning USA). After 24 hours, cells were treated with appropriate concentrations (see table) of γ-tocopheryl phosphate mixture (γ-TP) (Vital Health) and Lycopene (Sigma) or combinations of Lycopene and γ-TP diluted in phenol red-free RPMI medium 1640 supplemented with 5% DCFCS. The culture medium was changed every 3-4 days. The combination treatment contained lycopene and γ-TP in a 1:1 ratio by molecular weight/mass with lycopene varying from 5 ug/ml-40 ug/ml.
Cell counting. The cells were washed twice with 0.9% NaCl to remove non-adherent dead cells and were then lysed in 0.5 ml 2.5 mM Hepes buffer/[…] MgCl2 plus two drops of zapoglobin II lytic reagent (Beckman Coulter, Coulter Corp USA) for 5-15 minutes. The nuclei released were suspended in isoton III (Beckman Coulter, Coulter Corp, USA) and counted on a Coulter counter with particle size set at >5 μm. All cell counts were carried out in triplicate on triplicate well contents. The results were calculated as the average ±standard error. P-values were determined using Independent samples T-Test (by standard software packages SPSS).

| Compound | activity on MCF-7 proliferation (MTS; quantity not given) ([1]; concentration 2 μg/ml) | activity on MCF-7 proliferation (MTS; quantity not given) ([1]; concentration 5 μg/ml) | activity on MCF-7 proliferation (MTS; quantity not given) ([1]; concentration 10 μg/ml) | activity on MCF-7 proliferation (MTS; quantity not given) ([1]; concentration 15 μg/ml) | activity on MCF-7 proliferation (MTS; quantity not given) ([1]; concentration 20 μg/ml) | activity on MCF-7 proliferation (MTS; quantity not given) ([1]; concentration 30 μg/ml) | activity on MCF-7 proliferation (MTS; quantity not given) ([1]; concentration 50 μg/ml) | activity on MCF-7 proliferation (MTS; quantity not given) [2] | relative potency as anti-cancer treatment ([1]; MCF-7) | Average total viable cells/well ([3]; Lycopene 5 ug/ml) | Total viable cells/well ([3]; Lycopene 5 ug/ml) | Average total viable cells/well ([3]; Lycopene 10 ug/ml) | Total viable cells/well ([3]; Lycopene 10 ug/ml) | Average total viable cells/well ([3]; Lycopene 15 ug/ml) | Total viable cells/well ([3]; Lycopene 15 ug/ml) | Average total viable cells/well ([3]; Lycopene 20 ug/ml) | Average total viable cells/well ([3]; Lycopene 25 ug/ml) | Total viable cells/well ([3]; Lycopene 25 ug/ml) | Average total viable cells/well ([3]; Lycopene 30 ug/ml) |
| --- | --- | --- | --- | --- | --- | --- | --- | --- | --- | --- | --- | --- | --- | --- | --- | --- | --- | --- | --- |
| Cc1c(OP(=O)(O)Oc2cc3c(c(C)c2C)O[C@](C)(CCC[C@H](C)CCC[C@H](C)CCCC(C)C)CC3)cc2c(c1C)O[C@](C)(CCC[C@H](C)CCC[C@H](C)CCCC(C)C)CC2 [GT2P, gamma-di-tocopheryl phosphate] | 4.91 | 31.07 | 39.471 | 53.126 | 64.557 | 98.43 | 126.506 | 7.283 | – | – | – | – | – | – | – | – | – | – | – |
| Cc1c(O)cc2c(c1C)O[C@](C)(CCC[C@H](C)CCC[C@H](C)CCCC(C)C)CC2 [GT, gamma-tocopherol] | 15.685 | 36.36 | 68.689 | 56.82 | 79.766 | 82.743 | 62.622 | −6.104 | least potent with limited activity | – | – | – | – | – | – | – | – | – | – |
| Cc1c(OP(=O)(O)O)cc2c(c1C)O[C@](C)(CCC[C@H](C)CCC[C@H](C)CCCC(C)C)CC2 [GTP, gamma-tocopheryl phosphate] | 5.624 | 4.807 | 25.102 | 43.512 | 64.719 | 81.81 | 109.928 | 7.32 | – | – | – | – | – | – | – | – | – | – | – |
| CC(C)=CCC/C(C)=C/C=C/C(C)=C/C=C/C(C)=C/C=C/C=C(C)/C=C/C=C(C)/C=C/C=C(\C)CCC=C(C)C [lycopene] | – | – | – | – | – | – | – | – | – | 4.367 ×10^5 cells/well | 4.392 ×10^5 cells/well and 4.383 ×10^5 cells/well and 4.325 ×10^5 cells/well | 3.712 ×10^5 cells/well | 3.555 ×10^5 cells/well and 3.869 ×10^5 cells/well | 3.716 ×10^5 cells/well | 3.704 ×10^5 cells/well and 3.727 ×10^5 cells/well | 0.276 ×10^5 cells/well | 1.478 ×10^5 cells/well | 1.759 ×10^5 cells/well and 1.196 ×10^5 cells/well | 0.120 ×10^5 cells/well |
